Values joined by “and” are separate entries in the source; they are usually repeats but may differ in a detail not shown here. Identical values can stand only once. “Also recorded” adds a separate entry of the source.
How the values were obtained:
pan-cadherin = test: Western blot for pan-cadherin, SK-MEL-5; type: cell-based, human
Procedure: (§1) After treatment of M14 and SK-MEL-5 cells with different concentrations of Dxr2-017 or vehicle for 3 or 8 days, as denoted, cell images were captured at 20X in a transmitted light channel using the EVOS™ M5000 Imaging System (Invitrogen (Waltham, MA, USA)). Western blots were performed as previously described by us. Briefly, cells were collected and lysed using RIPA lysis buffer (25 mM Tris-HCl pH 7.6, 150 mM NaCl, 1% NP-40, 1% sodium deoxycholate, and 0.1% SDS; Thermo Scientific^TM (Waltham, MA, USA), #89900), supplemented with protease and phosphatase inhibitor cocktail (Thermo Scientific^TM, #78442) and 1 mM of PMSF. Resultant Western blots were probed using antibodies against cleaved caspase 3 (Cell Signaling Technology (Danvers, MA, USA), #9664), pan-cadherin (Cell Signaling Technology, #4068), and β-actin (Santa Cruz (Santa Cruz, CA, USA), #sc-47778).
These findings led us to compare cleaved caspase 3 between adherent cells and floating cells. Cleaved caspase 3 is an indicator of programmed cell death, and its triggering by loss of cell attachment is an established means of detecting anoikis. Adherent cells were prepared as above. […]

[1] = tested on: breast, prostate, colon, or lung cancer cell lines; test: Eight-day colony formation assays, summary across the cancer cell line panel; type: cell-based, human; conditions: 8 days
Procedure: Initial colony formation screening assays were conducted on all acquired compounds and examined at five different compound concentrations. Those meeting efficacy criteria underwent a second-level screen examining nine different compound concentrations. Eight-day colony formation assays of cancer cells were performed as described by us. Briefly, 0.5–1.0 × 10^3 cells were seeded into each well of a 12-well plate. Twenty-four hours later, the compound was added at the following final concentrations: 0 (DMSO-only control), 0.017, 0.12, 0.82, 5.7, and 40 µM. For each concentration, there were N = 2 replicates, i.e., 2 wells. Eight days later, plates were stained with trypan blue, visualized under light microscopy, and groups of three or more cells were scored as colonies. The mean number of colonies was then determined and expressed as the percentage of controls. Second-level screens were performed on compounds inhibiting colony formation by greater than 50% at 40 µM in at least two cell lines. Second-level assays used the following final concentrations of compound: 0 (DMSO only), 0.0061, 0.018, 0.05, 0.16, 0.49, 1.48, 4.44, 13.33, and 40 µM. All compounds were stored under desiccated conditions in a sealed container at minus 20 °C upon arrival. One day prior to use, they were dissolved in DMSO, stored at minus 20 °C as stock solutions, thawed just prior to use, and not reused.
(§2) Human hematopoietic stem cell trilineage colony formation assays were performed as previously described by us. Briefly, human cord blood CD34+ cells (catalog #: 70008.5) were purchased from StemCell Technology Inc. and seeded at 1 × 10^4 cells per 35 mm dish. Cells were cultured in MethoCult™ Express (StemCell Technologies, Inc. (Vancouver, BC, Canada)) semisolid media, per the manufacturer’s instructions, in the presence of compound or vehicle (for controls). Compounds were added at final concentrations matching those used in the initial growth assay screens. At eight days, colonies (i.e., groups of ≥10 cells) were counted. At fourteen days, individual colonies of erythroid burst-forming units (BFU-E), colony-forming unit granulocyte–macrophage (CFU-GM), and colony-forming unit granulocyte, erythrocyte, monocyte, and megakaryocyte (CFU-GEMM) were identified based on the manufacturers’ morphologic characterization criteria. Assays were run in replicates of N = 2, and some were run in replicates of N = 4, as denoted. The mean number of colonies was then determined and expressed as the percentage of controls. The effect of each compound on inhibiting the growth of cancer cells relative to its toxic effects on normal bone marrow was evaluated. This was carried out by comparing colonies at 8 days for each cancer cell line to that of bone marrow. This information was used to calculate the efficacy ratio, as follows: efficacy ratio = (percent of remaining cancer cell colonies)/(percent of remaining bone marrow colonies). This was performed for all compounds at 40 µM and for selected compounds at 5.7 µM, as denoted. For compounds nominated for second-level screens, bone marrow colony formation assays were also repeated. Compounds were added at final concentrations matching those used in the initial screens.
We sought to identify compounds that would inhibit the growth of cancer cells, but that also did so selectively. Inhibition of cancer cell growth is a highly sought after attribute of anticancer agents. This was assessed by measuring the ability of a compound to inhibit cell growth in eight-day colony formation assays and examining concentrations ranging from 0.017 to 40 µM. Breast, colon, lung, and prostate cancer are four of the most common types of cancer in the United States, are major causes of cancer cell death, and were examined. […]

[2] = tested on: human cord blood CD34+ cells; test: Bone marrow stem cell (hematopoietic trilineage) colony formation assay; type: cell-based
Procedure: as §2
In parallel with measuring growth inhibition of cancer cell growth, we measured the effect on human hematopoietic stem cells. Hematopoietic stem cells reside in the bone marrow and are the source of mature cells present in blood. Bone marrow is one of the most sensitive organs in the body to drug toxicity, and this is especially so for anticancer drugs, where bone marrow toxicity can approach 100% [78, 79, 80]. Bone marrow toxicity was measured by performing hematopoietic colony formation assays on human CD34+ stem cells. The stem cell nature of this assay permitted the assessment of trilineage colony formation: granulocytic (white blood cells), erythrocytic (red blood cells), and megakaryocytic (platelets), measured by the formation of CFU-GM, BFU-E, and CFU-GEMM colonies, respectively. Two measurements were taken. First, total colonies at eight days were measured, thereby matching the eight-day timeframe of cancer cell colony formation assays. Second, at fourteen days, individual colonies had differentiated, permitting quantification of each lineage.

cleaved caspase 3 = test: Western blot for cleaved caspase 3, M14; type: cell-based, human; conditions: up to 10 µM, three days
Procedure: as §1
We then assessed whether Dxr2-017 induced apoptosis. We treated M14 and SK-MEL-5 cells with Dxr2-017 for three days at concentrations of up 10 and 20 µM, respectively, and measured cleaved caspase 3 using Western blot. […] In this assay, cells were grown in six-well plates and washed prior to lysis, and thus only adherent cells remained. […] Adherent cells are spread out and fusiform shaped, while detached/floating cells are round, as previously reported by us. […]

inhibition of normal bone marrow eight-day colony formation ([2]; 40 µM, 8 days): 30.2 ± 0.7% and 30% | decrease of BFU-E compared to the control ([2]; 40 µM, 14 days): 97.1 ± 4.1% | decrease of CFU-GM compared to the control ([2]; 40 µM, 14 days): 49.8 ± 0.0% | increase of CFU-GEMM compared to the control ([2]; 40 µM, 14 days): 16.1 ± 12.0% | inhibition of normal bone marrow fourteen-day total colony formation ([2]; 40 µM, 14 days): 42.6 ± 5.8% | Mean Number of Colonies, % of Control, 14 days ([2]; normal bone marrow, compound at 40 µM, 14 days, N = 2): 57 % of Control | Mean Number of Colonies, % of Control, 8 days ([2]; normal bone marrow, compound at 40 µM, total colonies at 8 days, N = 2): 70 % of Control
Compound: c1ccc2sc(-c3ccc(CNc4ccc5nnnn5n4)o3)nc2c1 [Dxr2-017]
cadherin expression (pan-cadherin): decreased cadherin expression in a concentration-dependent manner | efficacy ratio, mean ± SEM over cell lines with ratio below 0.5 ([1]; 5.7 µM): 0.25 ± 0.091 | efficacy ratio, mean ± SEM over cell lines with ratio below 0.5 ([1]; 40 µM): 0.03 ± 0.01 | cleaved caspase 3, adherent and floating cells combined (cleaved caspase 3): clear formation was observed | cleaved caspase 3, adherent cells only (cleaved caspase 3): did not see any induction of cleaved caspase 3; also recorded: no formation of cleaved caspase 3

Reference: article PMC11429909, “Protein Structure Inspired Discovery of a Novel Inducer of Anoikis in Human Melanoma” (Cancers, 2024)
